# Source: PubChem BioAssay (NCI)
#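 These data come from cells grown in 96-well plates and exposed to compound for 48 hours at five concentrations. At the GI50, growth is halved. TGI denotes the concentration required for complete inhibition of growth.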
# How the values were obtained:
# Test in all cases: growth of human tumour cells (NCI), 48 h
# [1] = tested on: DU-145 prostate
# [2] = tested on: SF-268 CNS
# [3] = tested on: SF-539 CNS
# [4] = tested on: K-562 leukemia
# [5] = tested on: MDA-MB-231 breast
# [6] = tested on: HL-60(TB) leukemia
# [7] = tested on: CCRF-CEM leukemia
# [8] = tested on: MCF7 breast
# [9] = tested on: LXFL 529 NSCLC
SMILES,TGI [1],TGI [2],TGI [3],TGI [4],TGI [5],TGI [6],TGI [7],TGI [8],GI50 [1],GI50 [2],GI50 [3],GI50 [4],GI50 [5],GI50 [6],GI50 [7],GI50 [8],TGI [9]
CN(C)c1ccc(C2CC(C)(O)Oc3cc4c(cc32)OCO4)cc1 (stereo not drawn),> 100 µM,> 100 µM,> 100 µM,> 100 µM,> 100 µM,> 100 µM,> 100 µM,> 100 µM,–,–,–,–,–,–,–,–,–
CNCc1ccc(-c2[nH]c3cc(F)cc4c3c2CCNC4=O)cc1,32.3 µM,66 µM,30.6 µM,43.9 µM,33 µM,41.3 µM,> 93 µM,35.5 µM,16 µM,22.8 µM,15 µM,18 µM,11.1 µM,20.9 µM,25.6 µM,8.9 µM,–
C=C(Cn1c2ccccc2c(=O)c2ccccc21)c1ccc(C(=O)Nc2ccccc2N)cc1,> 100 µM,> 100 µM,> 100 µM,> 100 µM,56 µM,> 26.9 µM,19.2 µM,> 100 µM,> 100 µM,5.74 µM,3.59 µM,1.35 µM,3.72 µM,0.662 µM,0.224 µM,> 100 µM,–
COC(=O)c1ccc2[nH]c(O)c(C(=Nc3ccc(N(C)C(=O)CN4CCN(C)CC4)cc3)c3ccccc3)c2c1,8.98 µM,7.94 µM,1.72 µM,11.9 µM,3.17 µM,3.12 µM,> 100 µM,2.42 µM,1.27 µM,1.33 µM,0.44 µM,0.241 µM,1.28 µM,0.835 µM,0.666 µM,0.603 µM,–
CC1=C2[C@@H](CC1)[C@]1(C)O[C@@](C3CC3)(C[C@H]1OC(=O)CO)[C@H]2OC(=O)/C=C/c1ccccc1,30.9 µM,23.1 µM,31.6 µM,46 µM,37.6 µM,42.6 µM,39.7 µM,31.3 µM,16.9 µM,4.03 µM,16.6 µM,16.1 µM,18.3 µM,15.6 µM,17.4 µM,13 µM,–
c1ccc2c3c([nH]c2c1)C1C2CCCCN2C(c2ccncc2)N1CC3 (stereo not drawn),–,–,> 100 µM,> 100 µM,–,52.5 µM,> 100 µM,–,–,–,–,–,–,–,–,–,> 100 µM
COc1cc(OC)cc(-c2ccc(-c3ccc(C(=N)N)cn3)s2)c1,3.22 µM,3.35 µM,3.13 µM,6.19 µM,3.51 µM,4.48 µM,7.29 µM,3.6 µM,1.79 µM,1.73 µM,1.71 µM,2.22 µM,1.79 µM,2.06 µM,2.71 µM,1.77 µM,–
C#Cc1cccc(NC(=O)C2CCCN(C(=O)CCl)C2)c1 (stereo not drawn),> 82.5 µM,> 82.5 µM,> 82.5 µM,> 82.5 µM,> 82.5 µM,> 82.5 µM,64.4 µM,> 82.5 µM,> 82.5 µM,> 82.5 µM,> 82.5 µM,36.6 µM,> 82.5 µM,> 82.5 µM,21.7 µM,> 82.5 µM,–
CNCc1cccc2c1OCCOCCOCCC(C)S(=O)(=O)c1ccc(cc1)-c1cnc(N)c(n1)C(=O)N2 (stereo not drawn),3.41 µM,3.33 µM,2.56 µM,10.4 µM,5.5 µM,3.83 µM,7.2 µM,14.6 µM,1.25 µM,1.18 µM,1.28 µM,1.5 µM,2.34 µM,1.81 µM,0.67 µM,1.28 µM,–
O=c1nc2[nH]c3c(-c4n[nH]c(=O)[nH]c4=O)cccc3c2n[nH]1,> 100 µM,> 100 µM,> 100 µM,> 100 µM,> 100 µM,> 100 µM,> 100 µM,> 100 µM,> 100 µM,> 100 µM,> 100 µM,> 100 µM,> 100 µM,> 100 µM,> 100 µM,> 100 µM,–
COc1ccc(/C(C)=C(\c2ccc(Cl)cc2)c2ccc(OCCN3CCCCCC3)cc2)cc1F,15.6 µM,> 16.7 µM,4.39 µM,16.4 µM,6.11 µM,7.11 µM,> 16.7 µM,11.1 µM,4.47 µM,6.42 µM,2.18 µM,0.828 µM,3.29 µM,3.25 µM,4.51 µM,3.59 µM,–
Cc1ccc(S(=O)(=O)N2CCC(C(=O)O)(c3ccccc3)CC2)cc1,> 100 µM,> 100 µM,> 100 µM,> 100 µM,> 100 µM,> 100 µM,> 100 µM,> 100 µM,–,–,–,–,–,–,–,–,–
CC1(C)CC[C@]2(C(=O)O)CC[C@]3(C)C(=CC[C@@H]4[C@@]5(C)C/C(=C/c6ccco6)C(=O)C(C)(C)[C@@H]5CC[C@]43C)[C@@H]2C1,15.1 µM,23 µM,11.6 µM,> 100 µM,19.5 µM,6.84 µM,31.6 µM,23.5 µM,4.02 µM,4.03 µM,3.34 µM,3.37 µM,3.49 µM,2.55 µM,3.16 µM,3.18 µM,–
COc1cccc(C2C(C#N)=C(N)Oc3cc4c(cc32)OCO4)c1 (stereo not drawn),2.78 µM,> 37.8 µM,> 33.1 µM,> 100 µM,> 52.1 µM,0.279 µM,19.9 µM,18.1 µM,0.0845 µM,0.317 µM,0.0401 µM,0.04 µM,0.695 µM,0.029 µM,0.0362 µM,0.0351 µM,–
NNC(=O)N/N=C1\CN(c2ccc(Cl)cc2Cl)C(=O)C(=O)C1c1nc2ccccc2o1 (stereo not drawn),–,> 100 µM,> 100 µM,> 100 µM,–,–,> 100 µM,–,–,–,–,–,–,–,–,–,> 100 µM
N/C(=N\C(N)=N\c1nc2ccccc2s1)c1cnccn1,> 100 µM,> 100 µM,4.12 µM,> 100 µM,> 100 µM,51.5 µM,> 100 µM,> 100 µM,4.34 µM,4.74 µM,2.07 µM,3.69 µM,3.91 µM,2.68 µM,3.59 µM,3.16 µM,–
